Key:
[1] = Tissue distribution and depletion after oral [3H]-CYA for seven consecutive days; format: in vivo, Wistar rats; conditions: rats; for Tissue distribution and depletion of CYA (means ± SD) / t1/2 (elimination half-life): oral 10 mg/kg·bw x 7 days; for Tissue distribution and depletion of CYA (means ± SD): n = 4
Description: For the tissue distribution study, 24 rats were divided into six groups, one group as a blank control and five groups as five time point groups. Each time point group consisted of 4 rats (2 male and 2 female) administered [^3H]-CYA orally by gavage at 10 mg/kg bw (corresponded to a feed inclusion of approximately 100 mg/kg dose) for seven consecutive days, respectively. Dosing suspensions of [^3H]-CYA (2.08 Ci/mmol) were prepared in 0.5% aqueous carboxymethyl cellulose (CMC) at 4 mg/mL after being diluted with non-radiolabeled CYA to a specific activity of 9,044 dpm/µg. Another group of 4 rats (2 male and 2 female) was fed separately from the radioactive administration group for the blank control under the same conditions, sacrificed at 0 day. One group of 2 male and 2 female rats was randomly selected to be slaughtered at each time point (0.25, 1, 3, 7, and 14 days) after withdrawal. The rats were dissected, and blood, muscle, heart, liver, lung, spleen, kidney, skin, stomach, large intestine, small intestine, brain, cecum, testicle (or ovary), bladder, and bone (thigh bone) were collected separately and stored at −20°C until analysis. The weight of each tissue was recorded. Gastrointestinal tracts were stripped of their contents.
(§1) For radioactivity detection, the samples were combusted by PerkinElmer Oxidizer 307 (PerkinElmer Life and Analytical Sciences). ^3H2O was collected into 20 mL of scintillant (PerkinElmer Life and Analytical Sciences) with 10 mL of Monophase S, and sample radioassays were quantitated by PerkinElmer® TriCarb® 2900 (PerkinElmer Life and Analytical Sciences) with low-level quench-correction. Counting efficiency was above 65%.
(§2) Tissue samples for each sampling time from all animals were homogenized, aliquots of blood and urine were mixed thoroughly, and feces were homogenized in methanol/water (50:50; V/V). Samples of the blood (500 μL), urine (500 μL) feces (500 mg), bone, and all tissues (100–500 mg) were combusted in PerkinElmer Oxidizer 307 after being transferred into tared cones and pads (PerkinElmer Life and Analytical Sciences) and added an aliquot of Combustaid (200 μL; PerkinElmer Life and Analytical Sciences). Radioactivity in the combustion products was determined by collecting ^3H2O into distilled water followed by liquid scintillation counting. Combustion efficiency was determined daily, prior to the combustion of study samples, by using a diluted dose formulation or ^3H standard. The measured radioactivity content in the combusted samples was adjusted using the combustion efficiency values. Samples were analyzed for radioactivity for 5 min. Total residue concentrations were calculated from the specific activity and radioactivity per mass or volume and expressed as molar equivalents of CYA.

[2] = Excretion study, recovery of total radioactivity after single oral [3H]-CYA; format: in vivo, Wistar rats
Description: For the excretion study, a group of six rats (3 male and 3 female) were housed individually in metabolism cages, which allowed separate collection of urine and feces, and then administered with a single dose of 10 mg/kg bw (corresponded to a feed inclusion of approximately 100 mg/kg dose) [^3H]-CYA by oral gavage. Dosing suspensions of [^3H]-CYA were prepared in 0.5% aqueous CMC at 2 mg/mL after [^3H]-CYA (2.08 Ci/mmol) was diluted with non-radiolabeled CYA to a specific activity of 4.52 × 10^4 dpm/µg. Urine and feces were collected from intact animals for 7 days at 0–12, 12–24, 24–48, 48–72, 72–96, 96–120, 120–144, and 144–168 h after the dose, and the total weight of the urine and feces was recorded after each collection. At the end of the study, the animals are anesthetized, and once it's confirmed that they have lost consciousness, they are euthanized by exsanguination. The samples were stored at −20°C until analysis. Contents of gastrointestinal tracts were pooled with feces of 144–168 h time point. Each metabolism cage was thoroughly rinsed with a mixture of methanol/water (1:1; V/V), and the rinse solvent was collected and weighed. Each cage rinse was stirred thoroughly, […] of subsamples were removed, and radioactivities were analyzed immediately. One animal per gender was administered with non-radiolabeled CYA at the same dose, and animals were sacrificed at 6 h post-dose. Urine, feces, and tissues were collected for the blank controls.
as §1, §2

[3] = rats, single oral 10 mg/kg bw, 7 days

[3H]c1ccc2c(c1)[n+]([O-])cc(/C=N/NC(=O)CC#N)[n+]2[O-] [[^3H]-CYA]
Tissue distribution and depletion of CYA (means ± SD) ([1]; Bladder, 6 h after withdrawal): 0.98863 ± 0.19738 mg/kg
Tissue distribution and depletion of CYA (means ± SD) ([1]; Blood, 6 h after withdrawal): 1.55298 ± 0.13322 mg/kg
Tissue distribution and depletion of CYA (means ± SD) ([1]; Blood, 1 d after withdrawal): 0.78575 ± 0.05613 mg/kg
Tissue distribution and depletion of CYA (means ± SD) ([1]; Blood, 3 d after withdrawal): 0.74887 ± 0.0257 mg/kg
Tissue distribution and depletion of CYA (means ± SD) ([1]; Blood, 7 d after withdrawal): 0.06989 ± 0.03612 mg/kg
t1/2 (elimination half-life) ([1]; Blood): 38.50 h
Tissue distribution and depletion of CYA (means ± SD) ([1]; Bone, 6 h after withdrawal): 0.49469 ± 0.05879 mg/kg
Tissue distribution and depletion of CYA (means ± SD) ([1]; Bone, 1 d after withdrawal): 0.28043 ± 0.05615 mg/kg
Tissue distribution and depletion of CYA (means ± SD) ([1]; Brain, 6 h after withdrawal): 0.62702 ± 0.06033 mg/kg
Tissue distribution and depletion of CYA (means ± SD) ([1]; Brain, 1 d after withdrawal): 0.45064 ± 0.04138 mg/kg
Tissue distribution and depletion of CYA (means ± SD) ([1]; Caecum, 6 h after withdrawal): 15.5409 ± 2.03867 mg/kg
Tissue distribution and depletion of CYA (means ± SD) ([1]; Caecum, 1 d after withdrawal): 0.56384 ± 0.06558 mg/kg
Tissue distribution and depletion of CYA (means ± SD) ([1]; Caecum, 3 d after withdrawal): 0.02075 ± 0.01112 mg/kg
t1/2 (elimination half-life) ([1]; Caecum): 7.45 h
Tissue distribution and depletion of CYA (means ± SD) ([1]; Heart, 6 h after withdrawal): 1.091 ± 0.1971 mg/kg
Tissue distribution and depletion of CYA (means ± SD) ([1]; Heart, 1 d after withdrawal): 0.66217 ± 0.10149 mg/kg
Tissue distribution and depletion of CYA (means ± SD) ([1]; Heart, 3 d after withdrawal): 0.24376 ± 0.04678 mg/kg
t1/2 (elimination half-life) ([1]; Heart): 31.50 h
Tissue distribution and depletion of CYA (means ± SD) ([1]; Kidney, 6 h after withdrawal): 6.24527 ± 0.67361 mg/kg
Tissue distribution and depletion of CYA (means ± SD) ([1]; Kidney, 1 d after withdrawal): 2.03447 ± 0.34637 mg/kg
Tissue distribution and depletion of CYA (means ± SD) ([1]; Kidney, 3 d after withdrawal): 1.14528 ± 0.11569 mg/kg
Tissue distribution and depletion of CYA (means ± SD) ([1]; Kidney, 7 d after withdrawal): 0.08605 ± 0.04177 mg/kg
t1/2 (elimination half-life) ([1]; Kidney): 28.88 h
Tissue distribution and depletion of CYA (means ± SD) ([1]; Large Intestine, 6 h after withdrawal): 2.32296 ± 0.11341 mg/kg
Tissue distribution and depletion of CYA (means ± SD) ([1]; Large Intestine, 1 d after withdrawal): 0.5581 ± 0.05702 mg/kg
Tissue distribution and depletion of CYA (means ± SD) ([1]; Large Intestine, 3 d after withdrawal): 0.12977 ± 0.0238 mg/kg
t1/2 (elimination half-life) ([1]; Large Intestine): 16.90 h
Tissue distribution and depletion of CYA (means ± SD) ([1]; Liver, 6 h after withdrawal): 5.04944 ± 0.37061 mg/kg
Tissue distribution and depletion of CYA (means ± SD) ([1]; Liver, 1 d after withdrawal): 2.35504 ± 0.25805 mg/kg
Tissue distribution and depletion of CYA (means ± SD) ([1]; Liver, 3 d after withdrawal): 1.4301 ± 0.17539 mg/kg
Tissue distribution and depletion of CYA (means ± SD) ([1]; Liver, 7 d after withdrawal): 0.12635 ± 0.04235 mg/kg
t1/2 (elimination half-life) ([1]; Liver): 33.00 h
Tissue distribution and depletion of CYA (means ± SD) ([1]; Lung, 6 h after withdrawal): 1.88405 ± 0.29415 mg/kg
Tissue distribution and depletion of CYA (means ± SD) ([1]; Lung, 1 d after withdrawal): 1.68108 ± 0.11214 mg/kg
Tissue distribution and depletion of CYA (means ± SD) ([1]; Lung, 3 d after withdrawal): 0.79745 ± 0.09581 mg/kg
Tissue distribution and depletion of CYA (means ± SD) ([1]; Lung, 7 d after withdrawal): 0.04918 ± 0.01852 mg/kg
t1/2 (elimination half-life) ([1]; Lung): 30.13 h
Tissue distribution and depletion of CYA (means ± SD) ([1]; Muscle, 6 h after withdrawal): 0.96902 ± 0.06106 mg/kg
Tissue distribution and depletion of CYA (means ± SD) ([1]; Muscle, 1 d after withdrawal): 0.52982 ± 0.05487 mg/kg
Tissue distribution and depletion of CYA (means ± SD) ([1]; Ovary, 6 h after withdrawal): 2.88421 ± 0.06688 mg/kg
Tissue distribution and depletion of CYA (means ± SD) ([1]; Ovary, 1 d after withdrawal): 0.32655 ± 0.03923 mg/kg
Tissue distribution and depletion of CYA (means ± SD) ([1]; Ovary, 3 d after withdrawal): 0.01887 ± 0.00619 mg/kg
t1/2 (elimination half-life) ([1]; Ovary): 9.63 h
Tissue distribution and depletion of CYA (means ± SD) ([1]; Skin/Fat, 6 h after withdrawal): 1.2996 ± 0.23417 mg/kg
Tissue distribution and depletion of CYA (means ± SD) ([1]; Skin/Fat, 1 d after withdrawal): 1.03596 ± 0.07642 mg/kg
Tissue distribution and depletion of CYA (means ± SD) ([1]; Skin/Fat, 3 d after withdrawal): 0.42024 ± 0.03644 mg/kg
Tissue distribution and depletion of CYA (means ± SD) ([1]; Skin/Fat, 7 d after withdrawal): 0.0253 ± 0.02233 mg/kg
Tissue distribution and depletion of CYA (means ± SD) ([1]; Small Intestine, 6 h after withdrawal): 2.86777 ± 0.1072 mg/kg
Tissue distribution and depletion of CYA (means ± SD) ([1]; Small Intestine, 1 d after withdrawal): 0.46368 ± 0.12091 mg/kg
Tissue distribution and depletion of CYA (means ± SD) ([1]; Small Intestine, 3 d after withdrawal): 0.05785 ± 0.01762 mg/kg
t1/2 (elimination half-life) ([1]; Small Intestine): 12.60 h
Tissue distribution and depletion of CYA (means ± SD) ([1]; Spleen, 6 h after withdrawal): 1.1278 ± 0.08725 mg/kg
Tissue distribution and depletion of CYA (means ± SD) ([1]; Spleen, 1 d after withdrawal): 0.75931 ± 0.04725 mg/kg
Tissue distribution and depletion of CYA (means ± SD) ([1]; Spleen, 3 d after withdrawal): 0.2717 ± 0.05323 mg/kg
Tissue distribution and depletion of CYA (means ± SD) ([1]; Spleen, 7 d after withdrawal): 0.02521 ± 0.04114 mg/kg
t1/2 (elimination half-life) ([1]; Spleen): 30.13 h
Tissue distribution and depletion of CYA (means ± SD) ([1]; Stomach, 6 h after withdrawal): 2.29013 ± 0.61619 mg/kg
Tissue distribution and depletion of CYA (means ± SD) ([1]; Stomach, 1 d after withdrawal): 0.44866 ± 0.04356 mg/kg
Tissue distribution and depletion of CYA (means ± SD) ([1]; Stomach, 3 d after withdrawal): 0.14233 ± 0.00993 mg/kg
t1/2 (elimination half-life) ([1]; Stomach): 18.24 h
Tissue distribution and depletion of CYA (means ± SD) ([1]; Testicle, 6 h after withdrawal): 1.05196 ± 0.00706 mg/kg
Tissue distribution and depletion of CYA (means ± SD) ([1]; Testicle, 1 d after withdrawal): 0.74037 ± 0.07782 mg/kg
Tissue distribution and depletion of CYA (means ± SD) ([1]; Testicle, 3 d after withdrawal): 0.3319 ± 0.05429 mg/kg
t1/2 (elimination half-life) ([1]; Testicle): 40.76 h
time of maximum concentrations in all detected organs or tissues ([1]; oral 10 mg/kg bw for seven consecutive days): 6 h
radioactivity excreted, % of total dose ([2]; 0–12 h post-dose): 21.03%
radioactivity excreted, % of total dose ([2]; 12–24 h post-dose): 70.25%
drug-related radioactivity excreted, % of administration amount ([2]; first 24 h after administration): 91.28%
radioactivity excreted in the feces [2, 3]: 60.25%
radioactivity excreted in the urine [2, 3]: 34.81%
radioactivity of the cage rinse [2, 3]: 0.78%
radioactivity remaining in the carcass [2, 3]: 0.38%
Overall recovery of total radioactivity ([2]; rats, single oral 10 mg/kg bw, within 7 days (168 h), n = 6): 96.22%

Source: paper PMC11456426, “Study of transport, tissue distribution, depletion, and hepatotoxicity of Cyadox, a quinoxaline-1,4-dioxide derivative” (Frontiers in Pharmacology, 2024)
